Patent US20070128217A1 (priority 2003, published 2007)

How the values were obtained:
[1] = test system: recombinant human anti-SARS-CoV antibody 03-018; assay type: binding; set-up: Binding of antibody 03-018 to linear peptides of the N protein of SARS-CoV Urbani / Binding of antibody 03-018 to looped/cyclic peptides of the N protein of SARS-CoV Urbani: unit not given here
[2] = test system: antibodies in sera from SARS patients (sera 1a, 1b, 2, 6, 37, 62, London, SARS-yellow, SARS-green); assay type: binding, human; set-up: Binding of serum 6 to linear peptides of protein X1 of SARS-CoV Urbani / Binding of serum 37 to linear peptides of protein X1 of SARS-CoV Urbani / Binding of serum 6 to looped/cyclic peptide (PEPSCAN-ELISA) / Binding of serum 37 to looped/cyclic peptide (PEPSCAN-ELISA) / Binding of serum 37 to looped/cyclic peptides of protein X1 of SARS-CoV Urbani / Binding of serum 6 to linear peptides of protein X2 / Binding of serum 37 to linear peptides of protein X2 / Binding of serum 37 to looped/cyclic peptides of protein X2 of SARS-CoV Urbani / Binding of serum 6 to linear peptides of protein M of SARS-CoV Urbani / Binding of serum 37 to linear peptides of protein M of SARS-CoV Urbani / Binding of serum 6 to looped/cyclic peptides of protein M of SARS-CoV Urbani / Binding of serum 37 to looped/cyclic peptides of protein M of SARS-CoV Urbani / Binding of serum 6 to linear peptides of protein X3 of SARS-CoV Urbani / Binding of serum 37 to linear peptides of protein X3 of SARS-CoV Urbani / Binding of serum 37 to looped/cyclic peptides of protein X3 of SARS-CoV Urbani / Binding of serum 6 to linear peptides of protein X4 of SARS-CoV Urbani / Binding of serum 37 to linear peptides of protein X4 of SARS-CoV Urbani / Binding of serum 37 to looped/cyclic peptides of protein X4 of SARS-CoV Urbani / Binding of serum 6 to linear peptides of protein X5 of SARS-CoV Urbani / Binding of serum 37 to linear peptides of protein X5 of SARS-CoV Urbani / Binding of serum 37 to looped/cyclic peptides of protein X5 of SARS-CoV Urbani / Binding of serum 6 to linear peptides of protein N of SARS-CoV Urbani / Binding of serum 37 to linear peptides of protein N of SARS-CoV Urbani / Binding of serum 6 to linear peptide (PEPSCAN-ELISA) / Binding of serum 1a to looped/cyclic peptides of protein N of SARS-CoV Urbani / Binding of serum 1b to looped/cyclic peptides of protein N of SARS-CoV Urbani / Binding of serum 2 to looped/cyclic peptides of protein N of SARS-CoV Urbani / Binding of serum 6 to looped/cyclic peptides of protein N of SARS-CoV Urbani / Binding of serum 37 to looped/cyclic peptides of protein N of SARS-CoV Urbani / Binding of serum 62 to looped/cyclic peptides of protein N of SARS-CoV Urbani / Binding of serum London to looped/cyclic peptides of protein N of SARS-CoV Urbani / Binding of serum SARS-green to looped/cyclic peptides of protein N of SARS-CoV Urbani: unit not given here
[3] = test system: control sera (pooled serum of ten healthy LUMC hospital workers; commercial negative donor pooled serum from the Dutch bloodbank); assay type: binding, human; set-up: Binding of Control serum LUMC to linear peptides / Binding of Control serum Blood-bank to linear peptides / Binding of Control serum LUMC to looped peptides / Binding of Control Serum Blood-Bank to Looped peptides / Binding of Control serum LUMC to linear peptides of the protein M of SARS-CoV Urbani / Binding of Control serum Blood-bank to linear peptides of the protein M of SARS-CoV Urbani / Binding of Control serum LUMC to looped peptides of the protein M of SARS-CoV Urbani / Binding of Control Serum Blood-Bank to Looped peptides of the protein M of SARS-CoV Urbani: unit not given here
[4] = test system: rabbit serum obtained by immunizing a rabbit with the SARS-CoV strain Frankfurt 1; assay type: binding; set-up: Binding of a rabbit serum to linear peptides / Binding of a rabbit serum to looped peptides / Rabbit serum linear peptides / Rabbit serum looped peptides / Binding of a rabbit serum to linear peptides of protein N of SARS-CoV Urbani (Rabbit serum linear peptides) / Binding of a rabbit serum to looped/cyclic peptides of protein N of SARS-CoV Urbani (Rabbit serum looped peptides): unit not given here

| Sequence | Binding of antibody 03-018 to linear peptides of the N protein of SARS-CoV Urbani [1] | Binding of antibody 03-018 to looped/cyclic peptides of the N protein of SARS-CoV Urbani [1] | Binding of serum 1a to linear peptides of protein N of SARS-CoV Urbani [2] | Binding of serum 1a to looped/cyclic peptides of protein N of SARS-CoV Urbani [2] | Binding of serum 1b to linear peptides of protein N of SARS-CoV Urbani [2] | Binding of serum 1b to looped/cyclic peptides of protein N of SARS-CoV Urbani [2] | Binding of serum 2 to linear peptides of protein N of SARS-CoV Urbani [2] | Binding of serum 2 to looped/cyclic peptides of protein N of SARS-CoV Urbani [2] | Binding of serum 6 to looped/cyclic peptides of protein N of SARS-CoV Urbani [2] | Binding of serum 37 to looped/cyclic peptides of protein N of SARS-CoV Urbani [2] | Binding of serum 62 to looped/cyclic peptides of protein N of SARS-CoV Urbani [2] | Binding of serum London to looped/cyclic peptides of protein N of SARS-CoV Urbani [2] | Binding of serum SARS-green to looped/cyclic peptides of protein N of SARS-CoV Urbani [2] | Binding of serum SARS-yellow to looped/cyclic peptides of protein N of SARS-CoV Urbani [2] | Binding of a rabbit serum to linear peptides of protein N of SARS-CoV Urbani (Rabbit serum linear peptides) [4] | Binding of a rabbit serum to looped/cyclic peptides of protein N of SARS-CoV Urbani (Rabbit serum looped peptides) [4] | Binding of Control Serum Blood-Bank to Looped peptides [3] | Binding of Control serum Blood-bank to linear peptides [3] | Binding of Control serum LUMC to linear peptides [3] | Binding of Control serum LUMC to looped peptides [3] | other results |
| --- | --- | --- | --- | --- | --- | --- | --- | --- | --- | --- | --- | --- | --- | --- | --- | --- | --- | --- | --- | --- | --- |
| LTYHGAIKLDDKDPQ | 0.1 | 0.2 | 0.2 | 0.3 | 0.1 | 0.1 | 0.2 | 0.3 | 0.1 | 0.5 | 0.3 | 0.4 | 0.1 | 0.4 | 0.1 | 0.5 |  |  |  |  | Binding of serum 6 to linear peptides of protein N of SARS-CoV Urbani [2]: 0.2; Binding of serum 37 to linear peptides of protein N of SARS-CoV Urbani [2]: 0.6; Binding of serum 62 to linear peptides of protein N of SARS-CoV Urbani [2]: 1.0; Binding of serum London to linear peptides of protein N of SARS-CoV Urbani [2]: 0.5; Binding of serum SARS-green to linear peptides of protein N of SARS-CoV Urbani [2]: 0.2; Binding of serum SARS-yellow to linear peptides of protein N of SARS-CoV Urbani [2]: 0.7; Control Serum Blood-Bank Looped peptides [3]: 0.5; Control serum Blood-bank linear peptides [3]: 0.7; Control serum LUMC linear peptides [3]: 0.6; Control serum LUMC looped peptides [3]: 0.5 |
| NNQNGGRNGARPKQR | 0.2 | 0.2 | 0.2 | 0.2 | 0.2 | 0.1 | 0.2 | 0.2 | 0.2 | 0.4 | 0.3 | 0.3 | 0.1 | 0.3 | 0.3 | 0.7 | 0.5 | 0.9 | 0.8 | 0.6 | Binding of serum 6 to linear peptides of protein N of SARS-CoV Urbani [2]: 0.3; Binding of serum 37 to linear peptides of protein N of SARS-CoV Urbani [2]: 0.7; Binding of serum 62 to linear peptides of protein N of SARS-CoV Urbani [2]: 0.8; Binding of serum London to linear peptides of protein N of SARS-CoV Urbani [2]: 0.5; Binding of serum SARS-green to linear peptides of protein N of SARS-CoV Urbani [2]: 0.5; Binding of serum SARS-yellow to linear peptides of protein N of SARS-CoV Urbani [2]: 0.6 |
| RRGPEQTQGNFGDQD | 0.1 | 0.2 |  | 0.3 |  | 0.2 |  | 0.2 | 0.1 | 0.4 | 0.2 | 0.2 | 0.6 | 0.4 | 0.1 | 0.1 | 0.3 | 0.6 | 0.6 | 0.4 | Recognition of the peptide by sera of SARS-CoV infected individuals, and form (linear, looped/cyclic) in which it is recognized [2]: recognized in linear form |
| AAEASKKPRQKRTAT | 0.1 | 0.2 |  | 0.2 |  | 0.1 |  | 0.2 | 0.1 | 0.4 | 0.3 | 0.3 | 0.1 | 0.2 | 0.3 | 0.5 | 0.5 | 0.8 | 0.9 | 0.5 | Recognition of the peptide by sera of SARS-CoV infected individuals, and form (linear, looped/cyclic) in which it is recognized [2]: recognized in linear form |
| ALLLLDRLNQLESKV | 0.1 | 0.3 |  | 0.4 |  | 0.3 |  | 0.5 | 0.3 | 1.0 | 0.9 | 0.5 | 0.7 | 0.5 | 0.1 | 0.4 | 0.8 | 0.8 | 0.7 | 0.8 | Binding of serum 1a to linear peptide (PEPSCAN-ELISA) [2]: 0.2; Binding of serum 1b to linear peptide (PEPSCAN-ELISA) [2]: 0.1; Binding of serum 2 to linear peptide (PEPSCAN-ELISA) [2]: 0.2; Binding of serum 6 to linear peptide (PEPSCAN-ELISA) [2]: 0.1; Binding of serum 37 to linear peptide (PEPSCAN-ELISA) [2]: 0.7; Binding of serum 62 to linear peptide (PEPSCAN-ELISA) [2]: 0.4; Binding of serum London to linear peptide (PEPSCAN-ELISA) [2]: 0.6; Binding of serum SARS-green to linear peptide (PEPSCAN-ELISA) [2]: 0.2; Binding of serum SARS-yellow to linear peptide (PEPSCAN-ELISA) [2]: 0.5 |
